# Data published in patent US11053244B1, “4-azaindole compounds” (BRISTOL-MYERS SQUIBB COMPANY, priority 2017, dated 2021).
# Tests used:
# TLR7 = TLR7 (Mus musculus (Mouse), UniProt P58681); assay: In vivo mouse TLR7 PD model (gardiquimod-induced plasma IL-6 and IFN-alpha); settings: plasma 90 min after gardiquimod, vs vehicle
# Protocol: In Vivo Mouse TLR7 PD Model:
# Adult male C5-7BL/6 mice were used for the experiments. Mice (7 to 10 per group) were randomized into different treatment groups based on body weight. Mice from the respective treatment groups were administered orally with vehicle or test compound. Thirty min after the oral administration of vehicle or test compound, mice were challenged with intraperitoneal injection of gardiquimod for TLR7 PD model. Ninety minutes after gardiquimod injection, mice were bled under isoflurane anaesthesia and plasma IL-6 and IFN-alpha levels were estimated by using commercially available ELISA kit (BD Biosciences, PBL Life Sciences). At the end of experiment, mean cytokine data was plotted and one way ANOVA with Dunnett's test was performed to calculate the significance of test compound treated group vs. vehicle control group. Percent inhibition of cytokine induction was calculated for test compound treated group vs vehicle control group.
# human TLR7 = human TLR7 (Homo sapiens (Human), UniProt Q9NYK1); assay: TLR7 inhibition reporter assay (HEK-Blue cells, SEAP reporter, gardiquimod stimulation); format: cell-based
# Protocol: (§1) HEK-Blue™-cells (Invivogen) overexpressing human TLR7, TLR8 or TLR9 receptors were used for screening inhibitors of these receptors using an inducible SEAP (secreted embryonic alkaline phosphatase) reporter gene under the control of the IFN-β minimal promoter fused to five NF-κB and AP-1-binding sites. Briefly, cells are seeded into Greiner 384 well plates (15000 cells per well for TLR7, 20,000 for TLR8 and 25,000 for TLR9) and then treated with test compounds in DMSO to yield a final dose response concentration range of 0.05 nM-50 μM. After a 30 minute compound pre-treatment at room temperature, the cells are then stimulated with a TLR7 ligand (gardiquimod at a final concentration of 7.5 μM), TLR8 ligand (R848 at a final concentration of 15.9 μM) or TLR9 ligand (ODN2006 at a final concentration of 5 nM) to activate NF-κB and AP-1 which induce the production of SEAP. After a 22 hour incubation at 37° C., 5% CO2, SEAP levels are determined with the addition of HEK-Blue™ Detection reagent (Invivogen), a cell culture medium that allows for detection of SEAP, according to manufacturer's specifications.
# human TLR8 = human TLR8 (Homo sapiens (Human), UniProt Q9NR97); assay: TLR8 inhibition reporter assay (HEK-Blue cells, SEAP reporter, R848 stimulation); settings: read-out: TLR8 IC50
# Protocol: TLR7/8/9 Inhibition Reporter Assays
# as §1
# human TLR9 = human TLR9 (Homo sapiens (Human), UniProt Q9NR96); assay: TLR9 inhibition reporter assay (HEK-Blue cells, SEAP reporter, ODN2006 stimulation); settings: read-out: TLR9 IC50
# Protocol: TLR7/8/9 Inhibition Reporter Assays
# as §1
# [1] = oral dose 0.005 mg/kg 30 min before i.p. gardiquimod
# [2] = oral dose 0.01 mg/kg 30 min before i.p. gardiquimod
# [3] = oral dose 0.05 mg/kg 30 min before i.p. gardiquimod
# [4] = oral dose 0.25 mg/kg 30 min before i.p. gardiquimod
# [5] = oral dose 0.5 mg/kg 30 min before i.p. gardiquimod
# [6] = oral dose 0.0015 mg/kg 30 min before i.p. gardiquimod
# [7] = oral dose 0.003 mg/kg 30 min before i.p. gardiquimod
# [8] = oral dose 0.015 mg/kg 30 min before i.p. gardiquimod
# [9] = oral dose 0.075 mg/kg 30 min before i.p. gardiquimod
# [10] = oral dose 0.15 mg/kg 30 min before i.p. gardiquimod
# [11] = oral dose 0.006 mg/kg 30 min before i.p. gardiquimod
# [12] = oral dose 0.03 mg/kg 30 min before i.p. gardiquimod
# [13] = oral dose 0.3 mg/kg 30 min before i.p. gardiquimod
# Chain of TLR7 (P58681 27-1050): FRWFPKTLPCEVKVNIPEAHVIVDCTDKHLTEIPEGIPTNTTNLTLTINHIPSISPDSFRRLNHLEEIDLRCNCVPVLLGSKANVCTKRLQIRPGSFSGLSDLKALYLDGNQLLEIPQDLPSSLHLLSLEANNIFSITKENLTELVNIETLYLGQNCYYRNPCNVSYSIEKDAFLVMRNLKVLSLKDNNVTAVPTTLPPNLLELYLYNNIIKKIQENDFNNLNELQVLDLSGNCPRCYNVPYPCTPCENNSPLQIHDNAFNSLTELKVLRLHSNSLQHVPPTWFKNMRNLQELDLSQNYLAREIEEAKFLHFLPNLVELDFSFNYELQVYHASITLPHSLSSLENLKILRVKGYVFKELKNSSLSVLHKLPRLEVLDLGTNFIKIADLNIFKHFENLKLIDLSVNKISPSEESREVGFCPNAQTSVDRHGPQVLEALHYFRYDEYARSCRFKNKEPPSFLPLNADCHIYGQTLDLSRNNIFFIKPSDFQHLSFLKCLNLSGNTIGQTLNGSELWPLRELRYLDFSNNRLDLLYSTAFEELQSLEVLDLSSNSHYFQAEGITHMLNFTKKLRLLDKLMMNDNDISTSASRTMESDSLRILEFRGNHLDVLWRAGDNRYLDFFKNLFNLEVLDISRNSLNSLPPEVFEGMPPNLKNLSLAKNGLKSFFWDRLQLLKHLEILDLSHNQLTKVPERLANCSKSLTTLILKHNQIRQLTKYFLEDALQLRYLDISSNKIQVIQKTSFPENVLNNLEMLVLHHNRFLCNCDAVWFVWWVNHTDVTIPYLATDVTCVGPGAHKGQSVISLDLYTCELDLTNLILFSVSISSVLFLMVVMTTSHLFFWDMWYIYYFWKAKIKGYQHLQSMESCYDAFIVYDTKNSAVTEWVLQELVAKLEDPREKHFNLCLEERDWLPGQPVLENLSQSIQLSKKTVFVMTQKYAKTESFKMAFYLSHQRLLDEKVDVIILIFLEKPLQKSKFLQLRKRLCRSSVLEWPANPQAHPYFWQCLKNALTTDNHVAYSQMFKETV
# Chain of human TLR9 (Q9NR96 26-1032): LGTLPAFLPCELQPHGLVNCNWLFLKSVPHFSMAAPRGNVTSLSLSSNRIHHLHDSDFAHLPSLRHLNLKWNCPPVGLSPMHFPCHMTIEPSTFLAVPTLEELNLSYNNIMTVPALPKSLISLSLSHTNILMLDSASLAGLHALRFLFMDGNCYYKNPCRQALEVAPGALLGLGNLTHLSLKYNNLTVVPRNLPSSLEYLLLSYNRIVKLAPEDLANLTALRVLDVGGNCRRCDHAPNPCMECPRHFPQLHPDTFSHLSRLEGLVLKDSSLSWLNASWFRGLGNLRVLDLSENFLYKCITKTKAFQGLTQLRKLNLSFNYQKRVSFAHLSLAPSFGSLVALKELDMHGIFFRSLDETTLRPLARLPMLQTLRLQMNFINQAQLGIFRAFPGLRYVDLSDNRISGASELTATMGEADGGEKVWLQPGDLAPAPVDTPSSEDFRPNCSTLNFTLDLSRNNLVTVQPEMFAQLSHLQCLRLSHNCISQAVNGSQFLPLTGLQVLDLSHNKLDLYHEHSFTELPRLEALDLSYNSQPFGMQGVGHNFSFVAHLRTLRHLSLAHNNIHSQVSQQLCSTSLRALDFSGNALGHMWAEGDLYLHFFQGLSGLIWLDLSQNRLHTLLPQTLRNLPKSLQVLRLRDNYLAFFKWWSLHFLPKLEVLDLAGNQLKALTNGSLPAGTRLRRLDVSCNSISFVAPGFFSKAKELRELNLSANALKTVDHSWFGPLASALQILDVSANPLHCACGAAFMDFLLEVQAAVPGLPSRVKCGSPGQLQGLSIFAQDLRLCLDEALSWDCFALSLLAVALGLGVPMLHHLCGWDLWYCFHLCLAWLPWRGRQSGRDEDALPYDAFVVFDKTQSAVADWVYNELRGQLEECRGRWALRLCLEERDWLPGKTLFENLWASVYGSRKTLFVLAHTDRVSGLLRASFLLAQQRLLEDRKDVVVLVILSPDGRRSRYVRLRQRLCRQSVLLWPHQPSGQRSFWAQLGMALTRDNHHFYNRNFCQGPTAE
# Chain of human TLR8 (Q9NR97 27-1041): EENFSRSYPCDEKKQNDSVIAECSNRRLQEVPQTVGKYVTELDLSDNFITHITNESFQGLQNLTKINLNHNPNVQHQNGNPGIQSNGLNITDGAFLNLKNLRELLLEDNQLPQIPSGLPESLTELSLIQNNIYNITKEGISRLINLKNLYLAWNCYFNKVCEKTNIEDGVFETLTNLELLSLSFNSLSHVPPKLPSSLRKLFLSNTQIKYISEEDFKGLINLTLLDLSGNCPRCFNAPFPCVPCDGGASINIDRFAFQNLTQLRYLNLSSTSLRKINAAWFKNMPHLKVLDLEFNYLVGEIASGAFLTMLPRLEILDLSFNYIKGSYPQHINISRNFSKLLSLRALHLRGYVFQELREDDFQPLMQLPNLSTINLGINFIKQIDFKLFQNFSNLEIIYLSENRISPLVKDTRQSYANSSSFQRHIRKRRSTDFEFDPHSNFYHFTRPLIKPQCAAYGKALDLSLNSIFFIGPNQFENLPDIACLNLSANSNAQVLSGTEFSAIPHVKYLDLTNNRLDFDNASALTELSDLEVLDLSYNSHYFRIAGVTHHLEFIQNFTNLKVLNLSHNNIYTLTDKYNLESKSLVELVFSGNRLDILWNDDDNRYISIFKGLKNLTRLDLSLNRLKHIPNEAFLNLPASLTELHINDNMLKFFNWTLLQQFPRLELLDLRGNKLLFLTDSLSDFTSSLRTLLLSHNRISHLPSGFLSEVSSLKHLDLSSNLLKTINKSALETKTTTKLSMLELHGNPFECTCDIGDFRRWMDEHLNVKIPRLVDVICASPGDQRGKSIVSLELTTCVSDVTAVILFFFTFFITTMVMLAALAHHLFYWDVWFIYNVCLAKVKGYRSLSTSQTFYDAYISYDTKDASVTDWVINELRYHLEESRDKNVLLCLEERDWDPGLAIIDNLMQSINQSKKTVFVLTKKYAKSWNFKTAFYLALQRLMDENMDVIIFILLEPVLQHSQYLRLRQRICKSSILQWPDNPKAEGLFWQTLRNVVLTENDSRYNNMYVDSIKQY
# Chain of human TLR7 (Q9NYK1 27-1049): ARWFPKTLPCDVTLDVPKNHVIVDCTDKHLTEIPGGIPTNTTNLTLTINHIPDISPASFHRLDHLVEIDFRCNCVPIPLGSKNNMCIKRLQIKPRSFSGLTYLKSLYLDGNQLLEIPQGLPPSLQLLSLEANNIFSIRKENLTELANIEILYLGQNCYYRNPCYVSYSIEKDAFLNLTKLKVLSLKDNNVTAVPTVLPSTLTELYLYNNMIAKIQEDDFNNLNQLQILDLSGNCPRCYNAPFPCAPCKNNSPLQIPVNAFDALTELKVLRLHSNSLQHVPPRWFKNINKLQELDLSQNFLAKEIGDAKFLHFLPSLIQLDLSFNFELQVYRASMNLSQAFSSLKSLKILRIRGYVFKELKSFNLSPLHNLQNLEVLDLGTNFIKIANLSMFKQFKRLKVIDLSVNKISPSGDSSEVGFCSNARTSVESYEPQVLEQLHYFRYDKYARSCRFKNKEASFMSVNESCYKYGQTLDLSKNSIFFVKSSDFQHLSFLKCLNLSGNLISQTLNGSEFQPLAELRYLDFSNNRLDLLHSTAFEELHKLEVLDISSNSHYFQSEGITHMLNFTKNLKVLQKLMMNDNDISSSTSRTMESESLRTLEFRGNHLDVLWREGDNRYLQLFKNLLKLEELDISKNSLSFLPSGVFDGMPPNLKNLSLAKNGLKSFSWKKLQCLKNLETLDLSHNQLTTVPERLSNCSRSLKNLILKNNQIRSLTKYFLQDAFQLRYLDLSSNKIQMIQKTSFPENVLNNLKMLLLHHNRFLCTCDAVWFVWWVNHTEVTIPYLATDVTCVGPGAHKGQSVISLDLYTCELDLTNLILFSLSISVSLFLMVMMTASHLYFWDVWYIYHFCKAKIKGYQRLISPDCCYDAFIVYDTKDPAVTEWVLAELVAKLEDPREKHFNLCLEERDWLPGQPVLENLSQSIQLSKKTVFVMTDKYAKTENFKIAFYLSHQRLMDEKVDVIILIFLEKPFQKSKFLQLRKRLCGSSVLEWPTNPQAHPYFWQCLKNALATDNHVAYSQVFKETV
structure (smiles),measurement,setting,value
"Cc1c(-c2[nH]c3ccc(N4CCN(C(=O)CN(C)C)CC4)nc3c2C(C)C)cn2ncnc2c1C [Example 3, 1-(4-(2-(7,8-dimethyl-[1,2,4]triazolo[1,5-a]pyridin-6-yl)-3-isopropyl-1H-pyrrolo[3,2-b]pyridin-5-yl)piperazin-1-yl)-2-(dimethylamino)ethan-1-one]",% inhibition of IFN-alpha,TLR7; [1],29%
same,% inhibition of IL6,TLR7; [1],0%
same,% inhibition of IFN-alpha,TLR7; [2],37%
same,% inhibition of IL6,TLR7; [2],24%
same,% inhibition of IFN-alpha,TLR7; [3],94%
same,% inhibition of IL6,TLR7; [3],75%
same,% inhibition of IFN-alpha,TLR7; [4],99%
same,% inhibition of IL6,TLR7; [4],90%
same,% inhibition of IFN-alpha,TLR7; [5],100%
same,% inhibition of IL6,TLR7; [5],91%
"Cc1c(-c2[nH]c3ccc(C4CCC(NCC5(S(C)(=O)=O)CC5)CC4)nc3c2C(C)C)cn2ncnc2c1C (stereo not drawn) [Example 4, 4-(2-(7,8-dimethyl-[1,2,4]triazolo[1,5-a]pyridin-6-yl)-3-isopropyl-1H-pyrrolo[3,2-b]pyridin-5-yl)-N-((1-(methylsulfonyl)cyclopropyl)methyl)cyclohexan-1-amine]",% inhibition of IFN-alpha,TLR7; [6],0%
same,% inhibition of IL6,TLR7; [6],0%
same,% inhibition of IFN-alpha,TLR7; [7],33%
same,% inhibition of IL6,TLR7; [7],23%
same,% inhibition of IFN-alpha,TLR7; [8],74%
same,% inhibition of IL6,TLR7; [8],75%
same,% inhibition of IFN-alpha,TLR7; [9],93%
same,% inhibition of IL6,TLR7; [9],76%
same,% inhibition of IFN-alpha,TLR7; [10],99%
same,% inhibition of IL6,TLR7; [10],95%
"Cc1c(-c2[nH]c3ccc(C4CCC(N5CC6(C5)CS(=O)(=O)C6)CC4)nc3c2C(C)C)cn2ncnc2c1C (stereo not drawn) [Example 438, 6-((1r,4r)-(4-(2-(7,8-dimethyl-[1,2,4]triazolo[1,5-a]pyridin-6-yl)-3-isopropyl-1H-pyrrolo[3,2-b]pyridin-5-yl)cyclohexyl)-2-thia-6-azaspiro[3.3]heptane 2,2-dioxide]",% inhibition of IFN-alpha,TLR7; [7],36%
same,% inhibition of IL6,TLR7; [7],25%
same,% inhibition of IFN-alpha,TLR7; [11],57%
same,% inhibition of IL6,TLR7; [11],41%
same,% inhibition of IFN-alpha,TLR7; [12],67%
same,% inhibition of IL6,TLR7; [12],56%
same,% inhibition of IFN-alpha,TLR7; [10],96%
same,% inhibition of IL6,TLR7; [10],78%
same,% inhibition of IFN-alpha,TLR7; [13],98%
same,% inhibition of IL6,TLR7; [13],82%
Cc1c(-c2[nH]c3ccc(N4C[C@H]5C[C@@H]4CN5C4CCOC4)nc3c2C(C)C)cn2ncnc2c1C (stereo partly drawn) [Example 771],IC50,human TLR7,4.3 nM
same,IC50,human TLR8,9.2 nM
same,IC50,human TLR9,9840 nM
